Entries after “also recorded” stand apart in the source; their conditions may differ.
Experiments:
Assay type in all cases: in vivo, mouse
[1] = system: HoxA9/Meis1 AML; experiment: Kaplan-Meier survival of HoxA9/Meis1 AML-bearing mice; conditions: BRQ 50 mg/kg I.P. following iCT, compared to iCT alone (FIG. 19E)
From the text: (§1) The MLL-AF9 and HoxA9/Meis1 leukemia models have been described previously (Sykes et al., 2016). Briefly, the MLL-AF9 model was established by crossing MLL-AF9 knockin mice (Corral et al., 1996) with mice expressing GFP under the control of the ubiquitin promoter as well as mice expressing luciferase under the control of the β-actin promoter. The retroviral transduction model of HoxA9/Meis1 leukemia was generated by the infection of bone marrow mononuclear cells with an MSCV-HoxA9-IRES-Meis1 construct (originally designed by Dr. Guy Sauvageau; Kroon et al., 1998). For both models, leukemic bone marrow cells from a terminally ill mouse were harvested and expanded ex vivo in RPMI1640 medium (Lonza) supplemented with 10% fetal bovine serum (FBS; Gibco), 100 I.U./ml penicillin, 100 μg/ml streptomycin, 2 mM L-glutamine (all from Corning), 20 ng/ml recombinant mouse SCF (rmSCF), 10 ng/ml recombinant mouse interleukin 3 (rmIL-3) and […] (all from R&D Systems).
Recipient male mice (age 8-10 weeks) were injected intravenously (retro-orbital) with 1 million leukemia cells in a volume of 100 μl of saline. Disease progression was tracked intravitally using bioluminescence imaging. Mice were anaesthetized using isoflurane, injected with luciferin (150 μl of a 15 mg/ml solution in PBS), and imaged on an IVIS 200 Spectrum In Vivo Imaging System (PerkinElmer). […]

[2] = system: MLL-AF9 AML cells; experiment: AML burden of MLL-AF9 AML-bearing mice by bioluminescence imaging or flow cytometry; conditions: short term BRQ after iCT; four days after the last dose of iCT
Procedure: (§2) Recipient male mice (age 8-10 weeks) were injected intravenously (retro-orbital) with 1 million leukemia cells in a volume of 100 μl of saline. Disease progression was tracked intravitally using bioluminescence imaging. Mice were anaesthetized using isoflurane, injected with luciferin (150 μl of a 15 mg/ml solution in PBS), and imaged on an IVIS 200 Spectrum In Vivo Imaging System (PerkinElmer). When indicated, mice were treated with iCT (cytarabine, 100 mg/kg, once daily for 5 days and doxorubicin, 3 mg/kg, once daily for the first 3 days) or vehicle (saline) delivered via I.P. injection. To inhibit glutamine metabolism, mice were treated with DON (0.3 mg/kg, once daily) or vehicle (saline) delivered via I.P. injection. To inhibit GLS, mice were treated with a GLS inhibitor (150 mg/kg, twice daily) or vehicle (20% HP-β-cyclodextrin+20% Solutol, 50 mM citrate buffer, pH 3) delivered by oral gavage. […]
Cells were suspended in flow buffer and stained for 30 minutes at 4° C. in the dark with antibodies against c-Kit, Sca-1, CD34, CD45, Ter-119, CD31, LepR, CD90, CD105, SLC1A3, SLC38A1 or a lineage cocktail (CD3, Gr-1, CD11b, B220, Ter-119). […] Cell viability was analyzed using Annexin V-APC (BioLegend) and propidium iodide (PI; ThermoFisher Scientific) with Annexin V^−PI^− cells considered as viable cells. The number of viable cells was determined by taking into account the total number of cells per well as measured using a Cellometer (Nexcelom). Mitochondrial membrane potential was measured by Tetramethylrhodamine, ethyl ester (TMRE; ThermoFisher) staining and levels of ROS were measured by CellROX Orange staining. Cells were incubated with 200 nM TMRE or 2.5 μM CellROX Orange in RPMI1640 medium supplemented with 10% FBS, 100 I.U./ml penicillin, 100 μg/ml streptomycin and 2 mM L-glutamine at 37° C. for 30 minutes, washed in flow buffer and analyzed. For all flow cytometry experiments, single color controls were used to set compensations and fluorescence minus one controls were used to set gates. […]

[3] = system: MLL-AF9 AML; experiment: Kaplan-Meier survival of MLL-AF9 AML-bearing mice; conditions: two doses of BRQ 50 mg/kg I.P. following iCT, compared to iCT alone
From the text: as §1
(§3) Recipient male mice (age 8-10 weeks) were injected intravenously (retro-orbital) with 1 million leukemia cells in a volume of 100 μl of saline. Disease progression was tracked intravitally using bioluminescence imaging. Mice were anaesthetized using isoflurane, injected with luciferin (150 μl of a 15 mg/ml solution in PBS), and imaged on an IVIS 200 Spectrum In Vivo Imaging System (PerkinElmer). When indicated, mice were treated with iCT (cytarabine, 100 mg/kg, once daily for 5 days and doxorubicin, 3 mg/kg, once daily for the first 3 days) or vehicle (saline) delivered via I.P. injection. To inhibit glutamine metabolism, mice were treated with DON (0.3 mg/kg, once daily) or vehicle (saline) delivered via I.P. injection. To inhibit GLS, mice were treated with a GLS inhibitor (150 mg/kg, twice daily) or vehicle (20% HP-β-cyclodextrin+20% Solutol, 50 mM citrate buffer, pH 3) delivered by oral gavage. To inhibit DHODH, mice were treated with BRQ (50 mg/kg, once daily) or vehicle (70% PBS, 30% poly(ethylene glycol)-400, pH 7.2) delivered via I.P. injection. To inhibit GCL, mice were treated with BSO (twice daily by I.P. injection at 2.23 mg/kg+in the drinking water at 4.45 mg/ml) or vehicle (saline by I.P. injection+untreated drinking water).

[4] = system: pyrimidine synthesis in HoxA9/Meis1 AML cells; experiment: LC-MS-based quantification of glutamine metabolism and pyrimidine synthesis metabolites in HoxA9/Meis1 AML cells of treated mice; conditions: mice treated with vehicle or BRQ 24 prior
Procedure: as §2, with “gavage. To inhibit DHODH, mice were treated with BRQ (50 mg/kg, once daily) or vehicle (70% PBS, 30% poly(ethylene glycol)-400, pH 7.2) delivered via I.P. injection.” for “gavage.”
For untargeted metabolomics analysis, data were processed with Compound Discoverer 3.0 (ThermoFisher Scientific) using the mzCloud mass spectral library for compound annotation. […] For targeted metabolomics analysis, data were analyzed with Tracefinder4.1 (ThermoFisher Scientific).

[5] = system: MLL-AF9 AML cells; experiment: Flow cytometric quantification of CD34 and cKit levels in AML cells obtained from treated mice
Procedure: as §3
Cells were suspended in flow buffer and stained for 30 minutes at 4° C. in the dark with antibodies against c-Kit, Sca-1, CD34, CD45, Ter-119, CD31, LepR, CD90, CD105, SLC1A3, SLC38A1 or a lineage cocktail (CD3, Gr-1, CD11b, B220, Ter-119). 7-AAD was included as a viability dye to help identify dead cells. When necessary, cells were stained with a secondary antibody (Alexa Fluor 546-conjugated anti-rabbit IgG) or APC-eFluor 780-conjugated streptavidin (eBioscience) for 15 minutes at 4° C. in the dark. […] Cell viability was analyzed using Annexin V-APC (BioLegend) and propidium iodide (PI; ThermoFisher Scientific) with Annexin V^−PI^− cells considered as viable cells. The number of viable cells was determined by taking into account the total number of cells per well as measured using a Cellometer (Nexcelom). Mitochondrial membrane potential was measured by Tetramethylrhodamine, ethyl ester (TMRE; ThermoFisher) staining and levels of ROS were measured by CellROX Orange staining. Cells were incubated with 200 nM TMRE or 2.5 μM CellROX Orange in RPMI1640 medium supplemented with 10% FBS, 100 I.U./ml penicillin, 100 μg/ml streptomycin and 2 mM L-glutamine at 37° C. for 30 minutes, washed in flow buffer and analyzed. For all flow cytometry experiments, single color controls were used to set compensations and fluorescence minus one controls were used to set gates. All flow cytometry data was collected on a BD LSR II flow cytometer and analyzed using FlowJo software.

[6] = system: MLL-AF9 AML cells; experiment: Colony forming unit assay of AML cells obtained from treated mice
Procedure: as §3, with “water). […] FACS-sorted viable AML cells (GFP^+7-AAD^−) were resuspended in MethoCult GF M3434 (StemCell Technologies) at 1000 cells/ml and plated in SmartDish 6-well plates (StemCell Technologies) at 1 ml/well in duplicate. Cells were cultured in a humidified incubator at 37° C. in ambient air with 5% CO2. After 5 days colonies were counted.” for “water).”

[7] = agent alone, compared to vehicle-treated mice

Cc1c(-c2ccc(-c3ccccc3F)cc2)nc2ccc(F)cc2c1C(=O)O [BRQ, brequinar]
survival [1]: significantly extend survival | elimination of AML cells from the bone marrow [2]: improved elimination of AML cells from the bone marrow | survival [3]: significantly extend survival; also recorded: extended survival | survival ([3]; listed as brequinar): remarkably extend animal survival | pyrimidine synthesis (metabolite levels) [4]: effectively inhibits pyrimidine synthesis | percentage of CD34+cKit+ cells [5, 7]: strongly reduced | percentage of CD34-cKit+ cells ([5]; combination with iCT, compared to BRQ alone): further reduced | number of colony-forming units (CFUs) [6, 7]: strongly reduced | number of colony-forming units (CFUs) ([6]; combination with iCT (sequential), four days after the last dose of iCT): further reduced
